Source: patent US20080287469A1, “Phosphoinositide 3-Kinase Inhibitors for Inhibiting Leukocyte Accumulation” (priority 2005, published 2008)

Legend:
[1] = molecular target: EGF receptor tyrosine kinase (Homo sapiens, UniProt P00533); experiment: Protein kinase/phosphatase panel: EGF receptor tyrosine kinase; assay type: biochemical; conditions: inhibitor 10 μM; 100 μM ATP
[2] = molecular target: Insulin receptor tyrosine kinase (Homo sapiens, UniProt P06213); experiment: Protein kinase/phosphatase panel: insulin receptor tyrosine kinase; assay type: biochemical; conditions: inhibitor 10 μM; 100 μM ATP
[3] = molecular target: CD45 tyrosine phosphatase (Homo sapiens, UniProt P08575); experiment: Protein kinase/phosphatase panel: CD45 tyrosine phosphatase; assay type: biochemical; conditions: inhibitor 10 μM
PKC-θ = PKC-θ (Homo sapiens, UniProt Q04759); experiment: Protein kinase/phosphatase panel: PKC-θ; assay type: biochemical; conditions: inhibitor 10 μM; 100 μM ATP
PDK1 [4] = molecular target: PDK1 (Homo sapiens, UniProt O15530); experiment: Protein kinase/phosphatase panel: PDK1; assay type: biochemical; conditions: inhibitor 10 μM; 100 μM ATP
P70S6K = P70S6K (Homo sapiens, UniProt P23443); experiment: Protein kinase/phosphatase panel: P70S6K; assay type: biochemical; conditions: inhibitor 10 μM; 100 μM ATP
CDK2/cyclinA = CDK2/cyclinA (Homo sapiens, UniProt P24941); experiment: Protein kinase/phosphatase panel: CDK2/cyclinA; assay type: biochemical; conditions: inhibitor 10 μM; 100 μM ATP
ZAP-70 = ZAP-70 (Homo sapiens, UniProt P43403); experiment: Protein kinase/phosphatase panel: ZAP-70; assay type: biochemical; conditions: inhibitor 10 μM; 100 μM ATP
[5] = Number of circulating neutrophils in treated mice; assay type: in vivo; conditions: inhibitor treated animals
Description: The reduction in cell adhesion in these animals was not due to inhibitor-induced leukopenia as the number of circulating neutrophils was similar in both the control and experimental groups (2,857.3±803 and 2,730.7±1132.6 for control and inhibitor treated animals, respectively). The absolute number of circulating neutrophils in animals deficient in PI3Kδ was 2,997.7±776.1 (n=8).

[6] = Plasma concentration of the compound after oral administration; assay type: in vivo, mice; conditions: when LTB4 was applied
Protocol: (§1) Animals received a single oral dose of either a compound in accordance with the invention (25 mg/kg for mice and 20 or 40 mg/kg for rats) or vehicle (PEG-400). Blood samples were subsequently drawn at indicated time points and plasma concentration of the compound determined after liquid-liquid extraction by LC/MS. The lower quantification limit was 50 ng/ml. Plasma samples from control animals (vehicle alone) were used as the blank control.

[7] = system: Akt phosphorylation in HUVECs; experiment: Akt phosphorylation in TNFα-stimulated HUVECs (Western blot); assay type: cell-based, human; conditions: 2 μM
PDK1 [8] = experiment: Activity of PDK1 immunoprecipitated from TNFα-stimulated HUVECs; assay type: cell-based, human; conditions: incubation of intact HUVECs with compound
Description: Thus, PI3Kδ activity is required for PDK1 and Akt function in endothelium as previously described for neutrophils.

neutrophils [9] = experiment: Neutrophil chemotaxis across bare filter insert (Transwell) to LTB4; assay type: cell-based, mouse
Protocol: Neutrophil chemotaxis experiments were conducted as described [Roth et al., J. Immunoi. Methods, 188:97-116 (1995)]. Briefly, purified human neutrophils were incubated with DMSO (0.3% v/v) or an inhibitor in accordance with the invention reconstituted in DMSO (0.3%) for 20 minutes at room temperature. Cells were added to bare filter inserts (Transwell™ 5 μm pore size; Corning Costar, Cambridge, Mass.), that were placed into wells containing chemoattractants or control medium of a Ultra low 24-well cluster plate, and incubated for 1 hour at 37° C. in a 5% CO2 humidified environment. The number of neutrophils that migrated into the bottom well was determined by FACScan (Becton Dickinson, San Jose, Calif.). Results were expressed as percent neutrophil migration relative to the control (medium without inhibitor).
A dose response curve was generated to determine the concentration of LTB4 necessary to support half-maximal migration across a bare filter insert. Maximal transmigration for neutrophils purified from mouse bone marrow occurred between 100 to 250 nM of LTB4. […] Tager et al., J Exp. Med., 192:439-46 (2000). Treatment of WT neutrophils with 2 μM inhibitor in accordance with the invention diminished migration in response to LTB4 (30 nM) by ˜30%, a value equivalent to that observed for PI3Kδ deficient cells.

[10] = system: neutrophil accumulation in BAL fluid; experiment: LPS-induced acute lung injury model, BAL fluid; assay type: in vivo; conditions: for reduction in the accumulation of neutrophils in BAL fluid: one hour prior to LPS challenge
Protocol: Lewis rats to be treated with an inhibitor in accordance with the invention or vehicle control (PEG400) were first challenged with LPS [Asti et al., Pulm. Pharmacol Ther., 13:61-69 (2000)]. Briefly, the trachea was exposed by standard surgical procedures and 100 μl saline solution or saline containing LPS (Escherichia Coli Serotype 0111:B4, Sigma) was instilled. Six hours following the challenge, rats were euthanized and the bronchoalveolar lavage (BAL) fluid was collected for cell differentials. Total white blood cell (WBC) and neutrophil counts were determined (Hemavet™ 850 FS cell counter). Cell populations were identified by morphological examination of smears prepared by cytocentrifugation.
as §1

p38 MAPK = p38 MAPK (Homo sapiens, UniProt Q16539); conditions: inhibitor 10 μM; reported by Sadhu et al.; cited from earlier work
DNA-PK = DNA-PK (Homo sapiens, UniProt P78527); conditions: inhibitor 10 μM; reported by Sadhu et al.; cited from earlier work
CHK1 = CHK1 (Homo sapiens, UniProt O14757); conditions: inhibitor 10 μM; reported by Sadhu et al.; cited from earlier work
cSrc = cSrc (Homo sapiens, UniProt P12931); conditions: inhibitor 10 μM; reported by Sadhu et al.; cited from earlier work
CK1 = conditions: inhibitor 10 μM; reported by Sadhu et al.; cited from earlier work
PKBα (Akt 1) = PKBα (Akt 1) (Homo sapiens, UniProt P31749); conditions: inhibitor 10 μM; reported by Sadhu et al.; cited from earlier work
PKCα = PKCα (Homo sapiens, UniProt P17252); conditions: inhibitor 10 μM; reported by Sadhu et al.; cited from earlier work
neutrophils [11] = conditions: absence of hemodynamic forces; Sadhu et al.; cited from earlier work

Chain of PKC-θ (Q04759 whole entry): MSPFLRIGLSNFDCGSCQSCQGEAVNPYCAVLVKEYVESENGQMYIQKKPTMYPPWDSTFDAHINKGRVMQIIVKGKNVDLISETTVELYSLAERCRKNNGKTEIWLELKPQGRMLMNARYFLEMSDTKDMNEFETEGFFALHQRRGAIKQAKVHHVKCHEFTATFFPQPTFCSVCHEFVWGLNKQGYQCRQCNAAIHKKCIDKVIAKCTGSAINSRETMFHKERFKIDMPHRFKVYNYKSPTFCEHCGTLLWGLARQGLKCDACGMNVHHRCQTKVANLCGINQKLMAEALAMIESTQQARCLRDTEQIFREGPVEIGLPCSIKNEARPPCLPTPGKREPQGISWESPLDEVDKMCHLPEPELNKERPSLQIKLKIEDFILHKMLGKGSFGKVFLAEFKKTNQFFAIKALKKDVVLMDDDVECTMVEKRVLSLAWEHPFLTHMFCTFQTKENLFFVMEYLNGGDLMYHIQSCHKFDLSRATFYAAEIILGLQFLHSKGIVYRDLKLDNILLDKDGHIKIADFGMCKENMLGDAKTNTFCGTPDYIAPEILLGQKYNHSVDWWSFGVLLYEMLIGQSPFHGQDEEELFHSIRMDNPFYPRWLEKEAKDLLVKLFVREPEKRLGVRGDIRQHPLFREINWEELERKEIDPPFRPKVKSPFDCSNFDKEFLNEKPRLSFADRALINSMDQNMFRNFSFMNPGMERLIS
Chain of p38 MAPK (Q16539 whole entry): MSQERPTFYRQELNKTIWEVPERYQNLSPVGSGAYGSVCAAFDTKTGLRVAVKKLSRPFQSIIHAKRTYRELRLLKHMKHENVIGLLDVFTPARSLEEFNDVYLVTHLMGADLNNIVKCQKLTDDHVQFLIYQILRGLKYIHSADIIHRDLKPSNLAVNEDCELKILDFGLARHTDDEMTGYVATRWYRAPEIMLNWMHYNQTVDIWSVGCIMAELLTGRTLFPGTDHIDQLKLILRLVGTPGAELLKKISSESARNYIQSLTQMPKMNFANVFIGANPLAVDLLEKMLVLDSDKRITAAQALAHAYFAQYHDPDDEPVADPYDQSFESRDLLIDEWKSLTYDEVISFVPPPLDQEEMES
Chain of EGF receptor tyrosine kinase (P00533 25-1210): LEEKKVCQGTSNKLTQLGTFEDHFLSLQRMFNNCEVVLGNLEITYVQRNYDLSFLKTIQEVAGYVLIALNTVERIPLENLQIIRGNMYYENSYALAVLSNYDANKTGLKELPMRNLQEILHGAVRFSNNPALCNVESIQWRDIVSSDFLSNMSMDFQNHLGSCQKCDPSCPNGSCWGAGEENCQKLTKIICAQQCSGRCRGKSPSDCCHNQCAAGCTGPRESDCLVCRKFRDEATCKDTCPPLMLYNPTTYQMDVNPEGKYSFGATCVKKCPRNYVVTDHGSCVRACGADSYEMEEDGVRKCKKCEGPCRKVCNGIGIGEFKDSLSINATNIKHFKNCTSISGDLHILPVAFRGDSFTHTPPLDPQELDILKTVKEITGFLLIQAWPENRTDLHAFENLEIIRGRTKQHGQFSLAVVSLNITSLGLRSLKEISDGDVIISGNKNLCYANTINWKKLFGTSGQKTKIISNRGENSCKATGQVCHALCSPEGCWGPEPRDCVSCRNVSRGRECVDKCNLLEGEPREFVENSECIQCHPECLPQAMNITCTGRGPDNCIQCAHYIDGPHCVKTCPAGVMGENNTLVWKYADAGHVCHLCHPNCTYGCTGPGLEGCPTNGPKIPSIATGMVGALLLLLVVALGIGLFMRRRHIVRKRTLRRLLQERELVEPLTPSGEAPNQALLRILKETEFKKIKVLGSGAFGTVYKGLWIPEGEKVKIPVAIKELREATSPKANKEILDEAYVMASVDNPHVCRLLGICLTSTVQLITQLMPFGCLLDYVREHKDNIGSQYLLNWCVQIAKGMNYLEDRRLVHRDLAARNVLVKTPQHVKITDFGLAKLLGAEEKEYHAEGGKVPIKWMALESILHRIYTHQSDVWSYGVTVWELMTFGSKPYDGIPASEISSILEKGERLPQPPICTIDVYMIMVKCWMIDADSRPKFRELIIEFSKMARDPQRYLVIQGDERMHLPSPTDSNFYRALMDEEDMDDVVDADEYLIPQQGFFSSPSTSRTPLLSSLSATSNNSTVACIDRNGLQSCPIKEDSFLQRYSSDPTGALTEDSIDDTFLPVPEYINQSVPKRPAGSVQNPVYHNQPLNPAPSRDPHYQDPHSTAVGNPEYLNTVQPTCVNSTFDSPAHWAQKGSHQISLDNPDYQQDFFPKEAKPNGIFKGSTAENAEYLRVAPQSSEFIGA
Chain of CD45 tyrosine phosphatase (P08575 26-1306): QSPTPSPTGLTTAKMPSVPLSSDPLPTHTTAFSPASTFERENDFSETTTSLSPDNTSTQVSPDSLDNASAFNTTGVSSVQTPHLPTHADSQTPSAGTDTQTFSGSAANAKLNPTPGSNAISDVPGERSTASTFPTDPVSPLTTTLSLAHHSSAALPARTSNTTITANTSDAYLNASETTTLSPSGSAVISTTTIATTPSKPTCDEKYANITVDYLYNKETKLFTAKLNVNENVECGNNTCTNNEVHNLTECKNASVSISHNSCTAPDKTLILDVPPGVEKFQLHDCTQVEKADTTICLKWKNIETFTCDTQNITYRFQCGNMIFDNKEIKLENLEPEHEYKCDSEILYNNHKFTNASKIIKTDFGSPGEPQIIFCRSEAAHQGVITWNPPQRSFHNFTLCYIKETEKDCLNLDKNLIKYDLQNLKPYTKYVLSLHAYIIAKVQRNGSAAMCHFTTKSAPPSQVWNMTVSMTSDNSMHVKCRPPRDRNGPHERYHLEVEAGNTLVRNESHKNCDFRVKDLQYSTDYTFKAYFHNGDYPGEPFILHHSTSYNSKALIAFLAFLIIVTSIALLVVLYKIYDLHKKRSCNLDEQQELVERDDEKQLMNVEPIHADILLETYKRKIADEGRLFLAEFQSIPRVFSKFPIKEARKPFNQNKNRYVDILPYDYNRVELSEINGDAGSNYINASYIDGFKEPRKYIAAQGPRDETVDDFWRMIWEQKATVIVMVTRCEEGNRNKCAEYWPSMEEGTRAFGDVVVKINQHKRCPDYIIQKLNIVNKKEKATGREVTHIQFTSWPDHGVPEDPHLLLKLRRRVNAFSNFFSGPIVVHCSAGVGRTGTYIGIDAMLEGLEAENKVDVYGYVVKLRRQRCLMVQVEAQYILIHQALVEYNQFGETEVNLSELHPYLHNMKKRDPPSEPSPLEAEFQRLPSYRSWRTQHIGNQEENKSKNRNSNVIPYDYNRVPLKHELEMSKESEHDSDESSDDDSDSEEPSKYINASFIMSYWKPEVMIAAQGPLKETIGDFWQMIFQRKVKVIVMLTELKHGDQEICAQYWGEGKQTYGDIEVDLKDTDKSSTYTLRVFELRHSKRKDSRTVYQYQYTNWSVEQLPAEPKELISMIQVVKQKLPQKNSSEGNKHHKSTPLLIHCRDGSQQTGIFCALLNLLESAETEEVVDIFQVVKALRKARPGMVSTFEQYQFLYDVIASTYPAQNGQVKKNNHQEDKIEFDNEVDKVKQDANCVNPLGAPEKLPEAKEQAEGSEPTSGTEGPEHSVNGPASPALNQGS
Chain of CHK1 (O14757 whole entry, species assumed): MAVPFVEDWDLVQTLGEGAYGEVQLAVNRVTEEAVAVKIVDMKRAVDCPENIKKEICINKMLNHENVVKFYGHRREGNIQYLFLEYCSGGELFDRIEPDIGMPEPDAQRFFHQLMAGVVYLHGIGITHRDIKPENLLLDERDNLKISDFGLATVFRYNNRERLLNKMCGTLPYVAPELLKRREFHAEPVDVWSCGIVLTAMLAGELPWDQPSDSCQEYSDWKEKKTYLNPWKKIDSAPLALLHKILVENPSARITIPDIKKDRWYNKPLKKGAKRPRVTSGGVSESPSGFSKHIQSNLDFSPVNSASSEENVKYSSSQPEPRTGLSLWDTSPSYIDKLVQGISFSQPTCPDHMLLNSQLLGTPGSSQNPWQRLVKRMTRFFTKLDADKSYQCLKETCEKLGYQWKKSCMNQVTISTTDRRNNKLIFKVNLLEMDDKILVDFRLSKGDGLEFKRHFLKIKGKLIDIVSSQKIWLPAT

In the case of `Cc1ccccc1-n1c(Cn2cnc3c(N)ncnc32)nc2cccc(C)c2c1=O`, the “Activity (% of control) ± SD” value [1] is reported as 102 ± 5.5 % of control, the “Activity (% of control) ± SD” value [2] is reported as 98 ± 6.2 % of control and the “Activity (% of control) ± SD” value [3] is reported as 104 ± 2.2 % of control. For the same compound, the “Activity (% of control) ± SD” value (PKC-θ) was 97 ± 5.5 % of control, the “Activity (% of control) ± SD” value (PDK1 [4]) was 91.5 ± 2.1 % of control and the “Activity (% of control) ± SD” value (P70S6K) was 98.5 ± 0.7 % of control. The “Activity (% of control) ± SD” value (CDK2/cyclinA) was 92.5 ± 2.12 % of control, the “Activity (% of control) ± SD” value (ZAP-70) was 97.5 ± 13.4 % of control and the “number of circulating neutrophils” value [5] was 2,730.7±1132.6. For the same compound, the “inhibitor concentration (mean plasma)” value [6] was 12.8 ± 3.7 µM, the “phosphorylation of Akt (TNFα-mediated signaling)” value [7] was “reduction in phosphorylation of Akt” and the “kinase activity of PDK1 in response to TNFα” value (PDK1 [8]) was “reduced the kinase activity”. For the same compound, the “diminished migration in response to LTB4” value (neutrophils [9]; 2 μM, LTB4 30 nM, WT neutrophils) was about 30%, the “chemotaxis of cells lacking PI3Kδ” value (neutrophils [9]; identical concentration (2 μM), PI3Kδ deficient cells) was “no further effects on chemotaxis” and the “reduction in the accumulation of neutrophils in BAL fluid” value ([10]; 20 mg per kg oral) was “approximately 60%”. For the same compound, the “reduction in the accumulation of neutrophils in BAL fluid” value ([10]; 40 mg per kg oral) was about 80%, the “TNFα in BAL fluid” value ([10]; LPS-treated mice that received inhibitor) was “still detectable” and the “Activity (% of control) ± SD” value (p38 MAPK) was “No inhibition*”. For the same compound, the “Activity (% of control) ± SD” value (DNA-PK) was “No inhibition*”, the “Activity (% of control) ± SD” value (CHK1) was “No inhibition*” and the “Activity (% of control) ± SD” value (cSrc) was “No inhibition*”. For the same compound, the “Activity (% of control) ± SD” value (CK1) was “No inhibition*”, the “Activity (% of control) ± SD” value (PKBα (Akt 1)) was “No inhibition*” and the “Activity (% of control) ± SD” value (PKCα) was “No inhibition*”. For the same compound, the “fMLP-induced chemotaxis on an ICAM-1 substrate in vitro” value (neutrophils [11]) was “diminished fMLP-induced chemotaxis”.
